Earlier results, collected in patent US7977373B2, “Prodrugs of ion channel modulating compounds and uses thereof” (Cardiome Pharma Corp., priority 2004, dated 2011).

## CCCCCCCN(CC)CCCC(O)c1ccc(NS(C)(=O)=O)cc1 (centres unmarked) [ibutilide]
  patients requiring cardioversion for refractory ventricular arrhythmias: ~1.7%
estimated, patients
  risk of ventricular proarrhythmia: ~4.4%
